In patent publication US5756683A, “Immunological detection method” (Novartis Finance Corporation, priority 1991, dated 1998):

Target: MAb 4197-70-12
Experiment: two-step competitive ELISA; inhibition of MAb binding to carrier-bound antigen (cross-reactivity)
Design: species or system mouse (Balb/c)
Settings: for I50 (inhibitor concentration that reduces the ELISA signal by 50% in comparison with the control): competitive ELISA; for cross-reactivity: (antigen conc. for 50% inhibition/concentration of the antigen analog for 50% inhibition) × 100: relative to compound of formula (II) = 100
Description: [antigen concentration for 50% inhibition (I50)/concentration of the
antigen analogs for 50% inhibition (I50)]×100.
The I50 value can be determined, for example, by means of a competitive ELISA assay (see Example 8).
The detection of a compound of formula (II) can be effected by means of a two-step competitive ELISA test.
BSA-conjugated hapten, prepared in accordance with Example 1.2.1, in a 50 mM sodium carbonate buffer (pH 9.6) (200 ng of BSA-conjugated hapten/100 μl of 50 mM sodium carbonate buffer) is first of all adsorbed on microtitre plates (for example Dynatech, type M 129A) and incubated overnight at a temperature of 4° C.
The plates are then washed five times with PBS buffer enriched with 0.1% (v/v) polysorbate 20 (Tween 20) (PBS Tween).
The remaining free binding sites of the solid carrier material are then blocked by the addition of PBS-BSA in the form of a 1% (w/v) solution. After incubation for two hours at 22° C. the plates are washed again with PBS Tween (0.1%).
50 μl of the supernatant of the previously cloned hybridoma cells (in a dilution of from 1:1000 to 1:2000) or 50 μl of the previously purified monoclonal antibodies (40-120 ng/ml) are incubated a) with 950 μl of a standard solution containing an increasing amount of antigen [compound of formula (II)] or of antigen analog, b) with antigen-containing water samples or c) with antigen-containing soil extracts. [All dilutions are carried out in PBS Tween (0.1%)].
After an incubation period of 1 hour at room temperature (22° C.), 200 μl of the antigen/antibody mixture are added to each well in the microtitre plate and the whole batch is incubated for a further one hour. The wells are then washed five times with PBS Tween (0.1%) and charged with 100 μl/well of goat anti-mouse IgG antibody that is conjugated to alkaline phosphatase (dilution 1:1500), and incubated for a period of 1.5 hours.
After washing again, 150 μl/well of the substrate p-nitrophenyl phosphate dissolved in 1 mg/ml of diethanolamine buffer (1 mM, pH 9.8, enriched with 0.5 mM MgCl2 ×6H2 O) are added to the wells.
The intensity of the colour reaction that has occurred is determined at a wavelength of 405 nm. […] All the samples are determined in triplicate.
In order to determine the amount of antigen [[…]] present in a sample, first of all a calibration curve is produced, B/Bo×100 being plotted against the concentration of inhibitor. (Bo represents the absorption capacity measured without the addition of an antigen inhibitor to the antibody, and B is the absorption capacity when antigen inhibitors at various concentrations are added). The I50 value indicates the concentration of the antigen at which the binding of antibody to the solid phase is inhibited by 50%. The I50 value is determined using an ENZFITTER (Leatherbarrow, Elsevier-Biosoft) curve-calculation program based on a four-parameter logistical curve (Raab GM, 1983) and specially adapted to the prevailing conditions. The quantitative determination of antigen in soil or water samples within the context of ELISA is also carried out using the ENZFITTER program, the adaptation of the curve being based on standards that run on any microtitre plate.
^a) Inhibitor concentration that reduces the ELISA signal by 50% in
comparison with the control.
^b) (antigen conc. for 50% inhibition/concentration of the antigen
analog for 50% inhibition) × 100.

COC(=O)c1ccccc1S(=O)(=O)NC(=O)Nc1nc(OC(F)F)cc(OC(F)F)n1 [D]
I50 (inhibitor concentration that reduces the ELISA signal by 50% in comparison with the control): > 1000 ng/mL
cross-reactivity: (antigen conc. for 50% inhibition/concentration of the antigen analog for 50% inhibition) × 100: < 0.1%

COc1nc(C)nc(NC(=O)NS(=O)(=O)c2ccccc2CCC(F)(F)F)n1 [Compound of formula (II), N-[2-(3,3,3-trifluoropropyl)-phenylsulfonyl]-N'-(4-methoxy-6-methyl-1,3,5-triazin-2-yl)urea]
I50 (inhibitor concentration that reduces the ELISA signal by 50% in comparison with the control): 0.8 ng/mL
cross-reactivity: (antigen conc. for 50% inhibition/concentration of the antigen analog for 50% inhibition) × 100: 100%

COc1nc(C)nc(NC(=O)NS(=O)(=O)c2ccc(O)cc2OCCCl)n1 [A]
I50 (inhibitor concentration that reduces the ELISA signal by 50% in comparison with the control): > 1000 ng/mL
cross-reactivity: (antigen conc. for 50% inhibition/concentration of the antigen analog for 50% inhibition) × 100: < 0.1%

COc1nc(C)nc(NC(=O)NS(=O)(=O)c2ccccc2OCCCl)n1 [B]
cross-reactivity in words: no cross-reactivity
I50 (inhibitor concentration that reduces the ELISA signal by 50% in comparison with the control): > 1000 ng/mL
cross-reactivity: (antigen conc. for 50% inhibition/concentration of the antigen analog for 50% inhibition) × 100: < 0.1%
